For the experiment, the system named is growth hormone present in the plasma. The experiment is described as follows: In vivo growth hormone in plasma of Nembutal-treated rats by radioimmunoassay. To be noted: for growth hormone per milliliter of plasma (average): 500 micrograms per kilogram, blood sampled 15 minutes after administration, p<0.01. As to the method: The in vivo activity of the heptadecapeptide of this invention was established by injecting Nembutal intraperitoneally into rats weighing between 200 to 250 grams in an amount of 50 milligrams per kilogram body weight. After five minutes, the heptadecapeptide of this invention was administered to the rats in a dose of 500 micrograms per kilogram body weight from a solution made from three milligrams of the heptadecapeptide,1.2 milliliters of water and 4.8 milliliters of polyethylene glycol (PEG 400). The rats blood was sampled 15 minutes after administration of the heptadecapeptide and the amount of growth hormone present in the plasma was determined by radioimmunoassay.

Take `C[C@H](NC(=O)[C@H](Cc1ccc(O)cc1)NC(=O)CNC(=O)CN)C(=O)NCC(=O)N[C@H]1CSSC[C@@H](C(=O)O)NC(=O)[C@H](CO)NC(=O)[C@H]([C@@H](C)O)NC(=O)[C@H](Cc2ccccc2)NC(=O)[C@H]([C@@H](C)O)NC(=O)[C@H](CCCCN)NC(=O)[C@H](Cc2c[nH]c3ccccc23)NC(=O)[C@H](Cc2ccccc2)NC(=O)[C@H](Cc2ccccc2)NC(=O)[C@H](CC(N)=O)NC(=O)[C@H](CCCCN)NC1=O` [heptadecapeptide, Glycyl-glycyl-L-tyrosyl-L-alanyl-glycyl-L-cysteinyl-L-lysyl-L-asparaginyl-L-phenylalanyl-L-phenylalanyl-L-tryptophyl-L-lysyl-L-threonyl-L-phenylalanyl-L-threonyl-L-seryl-L-cysteine[6-17 cyclic disulfide]]: the “growth hormone per milliliter of plasma (average)” value (another experiment, twelve rats for control and testing, control 66 ± 10) was 21 ± 7 nanograms growth hormone per milliliter of plasma; the “growth hormone per milliliter of plasma (average)” value (first determination, eight treated rats, Nembutal 50 mg/kg i.p., control 86 ± 15) is 9 ± 4 nanograms growth hormone per milliliter of plasma. Besides, the “activity in reducing growth hormone concentrations in blood plasma compared with somatostatin” value (comparison with somatostatin, in words) is listed as “exceeds the activity of somatostatin”.

The values are drawn from patent US3931140A, “(H-gly-gly-tyr-ala)^1 -somatostatin” (American Home Products Corporation, priority 1975, dated 1976).
